Reference: PMC8482806, “A Novel Blood-Brain Barrier-Permeable Chemotherapeutic Agent for the Treatment of Glioblastoma” (Cureus, 2021)
Like-named read-outs stand apart in the source and are kept apart here.

How the values were obtained:
[1] = system: LLC-PK1 inducible LAT1-expressing cell line; assay: Modified clonogenic cell viability assay (CellTiter-Glo), LLC-PK1 inducible LAT1-expressing cells; format: cell-based; settings: for EC50: Sus scrofa, read-out: EC50, suppression of viability
Protocol: (§1) In vitro activity of QBS10072S was assessed using a modified clonogenic cell viability assay in 96-well clear-bottom plates. For the LLC-PK1 inducible LAT1-expressing cell line, 1000 cells/well were plated and cells were treated with either butyrate alone (non-induced) or with both butyrate and doxycycline (induced) as described above. For GBM cell lines, 2000 cells/well were plated. On day 2 (GBM) or day 3 (LLC-PK1) after original plating, cells were washed twice with PBS and incubated with 50 μL of various concentrations of QBS10072S in PBS in at least quadruplicate. After 30 minutes at 37°C, 200 μL of growth medium was added to each well. Clonal populations were allowed to grow until the control wells (mock treatment) were near confluence (7 to 10 days). At this point, 170 μL media were removed and 60 μL CellTiter-Glo® (Promega, Madison, WI) were added to each well. Plates were placed on an orbital shaker for three minutes to lyse the cells and then incubated for an additional 10 minutes at RT to stabilize the luminescent signal. Luminescence was recorded using an EnSpire® Multimode Plate Reader (Perkin Elmer). Background (luminescence from wells incubated with 100 μM melphalan or lomustine) was subtracted and data were normalized to the control. EC50s were determined by non-linear regression using GraphPad Prism.

[2] = system: 42MGBA cells; assay: Cell viability assay (CellTiter-Glo), 42MGBA; format: cell-based; settings: Homo sapiens; Cell Line: 42M6BA; read-out: LC50 (μM ± SD)
Protocol: as §1

[3] = system: DBTRG cells; assay: Cell viability assay (CellTiter-Glo), DBTRG; format: cell-based; settings: Homo sapiens; Cell Line: DBTRG; read-out: LC50 (μM ± SD)
Protocol: as §1

[4] = system: phosphorylation of H2AX in normal human astrocytes; assay: Phosphorylation of γ-H2AX assay (immunoblot), normal human astrocytes; format: cell-based; settings: NHAs, basal LAT1 undetectable, 16 hours
Protocol: U251 or normal human astrocyte cells were plated in six-well plates and incubated with various concentrations of QBS10072S for 16 hours. Proteins were extracted from cells using cell lysis buffer (Cell Signaling Technologies, Danvers, MA) supplemented with proteinase and a phosSTOP phosphatase inhibitor cocktail (Sigma-Aldrich, St. Louis, MO). Proteins were separated by SDS-PAGE and transferred onto polyvinylidene difluoride membranes, which were then probed with primary antibodies followed by horseradish peroxidase-conjugated secondary antibody, and visualized by ECL (Thermo-Fischer, S. San Francisco, CA). Antibodies specific for γH2AX (#2577), LAT1 (#5347), and beta-actin (#4970) were obtained from Cell Signaling Technologies.

[5] = system: LN229 intracerebral human GBM xenograft; assay: LN229 intracerebral human GBM xenograft in athymic mice (BLI, survival); format: in vivo, mouse; settings: for median survival time: vehicle 56; for %TGI: day 53, three doses
Protocol: Five-week-old female athymic mice (nu/nu, homozygous: Simonsen Laboratories, Gilroy, CA), housed under aseptic conditions, received intracranial tumor cell injection as previously described and as approved by the University of California San Francisco Institutional Animal Care and Use Committee, Protocol #: AN111064-03. Briefly, mice were anesthetized by intraperitoneal injection of ketamine (100 mg/kg) and xylazine (10 mg/kg) and injected with 3 μL of tumor cell suspension (300,000 cells total) into the right caudate-putamen. Coordinates: 3 mm to the right from bregma, on top of the coronal suture, and 3.5 mm depth. Injection rate: ~30 second/uL. For treatment studies, eight mice were used for each group for LN229 studies and nine mice per group for U251 studies. Treatments began when tumors entered the log-phase of growth as measured by luminescence, for the LN229 experiment on Day 21 and for U251 experiments on Day 14.
Dosing levels and frequency are described in the figure legends.
For bioluminescence imaging (BLI), mice were anesthetized as above, then administered 150 mg/kg of luciferin (D-luciferin potassium salt, Gold Biotechnology, St. Louis, MO) via intraperitoneal injection. Ten minutes after luciferin injection, mice were examined for tumor bioluminescence with an IVIS Lumina imaging station and Living Image software (Caliper Life Sciences, Alameda, CA), and regions of interest were recorded as photons per second per steradian per square cm.

[6] = system: breast cancer metastatic tumors; parameters: method as in PMID 34635566; settings: leptomeningeal metastatic disease model, BBB never disrupted; cited from earlier work
[7] = 2 mg/kg IV once every two weeks
[8] = 4 mg/kg IV once every two weeks
[9] = 8 mg/kg IV once every two weeks

In the case of `Cc1ccc(N(CCCl)CCCl)cc1C[C@H](N)CC(=O)O` [QBS10072S, (+)-(3S)-amino-4-[5-[bis(2-chloroethyl)amino]-2-methyl-phenyl]butanoic acid], the EC50 ([1]; LLC-PK1, induced, high LAT1 expressing cells) is reported as 1 µM, the EC50 ([1]; LLC-PK1, non-induced cells, low endogenous LAT1) is reported as 5.5 µM and the “potency induced vs. non-induced cells” value ([1]; high LAT1 vs. non-induced) is reported as 5.5 times. The CC50 [2] was 40 ± 10 µM, the CC50 [3] was 5 ± 2 µM and the “DDR pathway activation (phospho-H2AX)” value [4] was “significantly lower DDR pathway activation”. The median survival time [5, 7] was 66.5 days, the median survival time [5, 8] was 71 days and the median survival time [5, 9] was 74 days. The “%TGI” value [5, 7] was 72%, the “%TGI” value [5, 8] was 73% and the “%TGI” value [5, 9] was 84%. For the same molecule, the “inhibition of tumor growth with intact BBB” value [6] was “still effective for inhibiting tumor growth”.
